Key:
[1] = tested on: Shionogi mouse mammary carcinoma cells; test: Antiandrogenic activity: inhibition of DHT-induced proliferation of Shionogi cells; assay type: cell-based; conditions: Table 4′, DHT-induced proliferation; for Antiandrogenic Activity Shionogi, DHT E^−6: E^−6 (10^−6 M)
Method: The manner in which the inhibition is determined is described in “Other Tests; B-Androgenic/Antiandrogenic Activity”. Lower numbers are desirable. ND means that a determination was not done.
(§1) Androgenic/antiandrogenic activity of some preferred compounds has been measured using the Shionogi mouse mammary carcinoma cells.
(§2) Minimal essential culture medium (MEM), non-essential amino acids, and fetal calf serum were purchased from Flow Laboratories. In order to remove endogenous steroids, serum was incubated overnight at 4° C. with 1% activated charcoal (Norit A, Fisher) and 0.1% Dextran T-70 (Pharmacia). A 2-h supplementary adsorption was performed at 25° C. in order to further remove protein-bound steroids. Serum was also inactivated by a 20-min incubation at 56° C.
(§3) 5α-dihydrotestosterone (DHT) was obtained from Steraloids. The antiandrogen hydroxyflutamide (OH-FLU) was kindly supplied by Drs. T. L. Nagabuschan and R. Neri (Schering Corporation, Kenilworth, U.S.A.).
(§4) Shionogi male mice bearing androgen-sensitive mammary tumors were obtained from Drs. Keishi Matsumoto, Osaka, Japan, and Yvonne Lefebvre, Ottawa, Canada. For primary culture, tumors were excised and washed in ice-cold sterile 25 mM Hepes buffer (137 mM NaCl; 5 mM KCl; 0.7 mM Na2HPO4; 10 mM glucose, pH 7.2). After mincing with scissors, the tumor minces were digested for 2 h at 37° C. in Hepes buffer containing 3.8 mg/ml collagenase (Clostridium, Boehringer), 1.5 mg/ml hyaluronidase II (Sigma), and 3% bovine serum albumin fraction V (Schwartz-Mann). Dispersed cells were collected by centrifugation (500×g for 10 min), washed twice by suspension in minimal essential medium (MEM) containing 5% dextran-coated charcoal-treated fetal calf serum (DCC-FCS), 1% non-essential amino acids, 10 IU/ml penicillin, 50 μg/ml streptomycin, and 100 nM dihydrotestosterone (DHT) (Steraloids).
(§5) Cells were plated in the same medium at a density of 75 000 cells/ml in 75 cm^2 flasks under an atmosphere of 5% carbon dioxide in air at 37° C. The medium was changed weekly. The steroids and antisteroids were dissolved in ethanol and kept in stock solutions chosen to yield final ethanol concentrations less than 0.01% in the culture medium.
(§6) Cells were subcultured at near-confidence by gentle digestion in a solution of 0.1% pancreatin (Flow Laboratories) in Hepes buffer containing 3 mM ethylenediaminetetraacetic acid (EDTA) (pH 7.2). Cells were pelleted by centrifugation, resuspended in culture medium, counted in a Coulter counter, and replated as described above. Soft agar cloning was performed as described (Stanley et al., Cell 10: 35-44, 1977) in the presence of 100 nM DHT.
(§7) Cells were plated in 24-well plates at a density of 20 000 cells/well. The indicated increasing concentrations of agents were added to triplicate dishes, and cells were grown for 10-12 days with changes of medium every 3-4 days. Cell number was measured by direct counting in a Coulter counter.
(§8) ED50 values of action of DHT and glucocorticoids were calculated according to a least-square regression as described (Rodbard, Endocrinology 94: 1427-1431, 1974). Statistical significance was calculated according to a multiple-range test (Kramer, Biometrics 12: 307-310,1956).

[2] = tested on: Shionogi mouse mammary carcinoma cells; test: Androgenic activity: stimulation of proliferation of Shionogi cells; assay type: cell-based; conditions: Table 4′
Method: In column 9, the androgenic activity of preferred type 5 inhibitors expressed as the percentage of stimulation of proliferation of Shionogi cells at concentrations of 10^−7 M (left number) and 10^−6 M (right number) of inhibitor. The manner in which the stimulation is determined is described in “Other Tests; B-Androgenic/Antiandrogenic Activity”. Lower numbers are desirable. ND means that a determination was not done.
as §1, §2, §3, §4, §5, §6, §7, §8

[3] = target: T1, human type 2 17β-hydroxysteroid dehydrogenase (Homo sapiens, UniProt P37059); test: Enzymatic assay for type 2 17β-HSD; assay type: biochemical; conditions: Table 4′, bracketed values, 3 · 10^−8M
T1 construct: expressed in transfected cells; host or cells: 293 cells, transient transfection; microsomal fraction (100 000×g pellet)
T1 sequence (P37059 1-387): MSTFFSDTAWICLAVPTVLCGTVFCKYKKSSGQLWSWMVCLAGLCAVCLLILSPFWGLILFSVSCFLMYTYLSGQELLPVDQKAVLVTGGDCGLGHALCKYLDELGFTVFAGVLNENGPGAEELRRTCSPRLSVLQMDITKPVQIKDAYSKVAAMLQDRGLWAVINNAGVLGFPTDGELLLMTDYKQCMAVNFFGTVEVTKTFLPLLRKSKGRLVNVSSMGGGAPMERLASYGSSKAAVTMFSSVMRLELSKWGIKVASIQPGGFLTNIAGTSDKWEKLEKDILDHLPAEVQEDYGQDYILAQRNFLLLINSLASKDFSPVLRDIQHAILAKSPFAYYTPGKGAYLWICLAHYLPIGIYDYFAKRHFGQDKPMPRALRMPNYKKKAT
Method: The manner in which IC50 was determined is described in “Efficacy of Preferred Inhibitors: VI. Enzymatic assay for types 1, 2, and 3 17β-HSD and types 1 and 3 3α-HSD”. […] numbers of IC50 are desirable. Blank means that a determination was not done. […]
Enzyme sources. 293 cells transiently transfected with expression vectors encoding types 1, 2 and 3 17β-HSD (Luu-The et al., J. Steroid Biochem. Molec. Biol., 55: 581-587, 1995), types 1 and 2 5α-reductase (Luu-The et al., J. Invest. Dermatol., 102: 221-226, 1994) and types 1 and 3 3α-HSD (Dufort et al. Biochem. Biophys. Res. Commun. 228: 474-479, 1996), using the calcium phosphate procedure (Kingston et al., In: Current Protocols in Molecular Biology. Edited by E. M. Ausbel, R. Brent, R. E. Kingston, D. D. Moore, J. G. Seidman, J. A. Smith, K. Struhl. John Wiley & Sons, New York, pp. 9.1.1-9.1.9, 1991; Luu-The et al., J. Invest. Dermatol., 102: 221-226, 1994). For assays using cell subfractions, cells were sonicated in 50 mM sodium phosphate buffer (pH 7.4), containing 20% glycerol and 1 mM EDTA and centrifuged at 10 000×g for 30 min before centrifugation for 100 000×g for 1 h to separate the mitochondrial and microsomal fractions, respectively. The cytosol fractions (100 000×g supernatant) was used to determine type 1 activity while the microsomal fraction (pellet at 100 000×g) was used for measurement of types 2 and 3 17β-HSD activities.
Incubation. The enzymatic reaction was carried out at 37° C. in 1 ml of 50 mM sodium phosphate buffer, pH 7.4, containing 20% glycerol, 1 mM EDTA, and 2 mM cofactors (NADPH or AND^+) for 1 h in the presence of 0.1 μM ^14C-labeled substrate: estrone and 4-dione for types 1 and […] 17β-HSD, respectively, testosterone for type 2 17β-HSD as well as types 1 and 2 5α-reductases, DHT for types 1 and 3 3α-HSD activities, and the indicated concentration of inhibitor.
Extraction of metabolites, migration on TLC and quantification were as described above for the assay of type 5 17β-HSD.

[4] = target: T2, human type 5 17β-hydroxysteroid dehydrogenase (Homo sapiens, UniProt P42330); test: Inhibition of human type 5 17β-HSD activity in transfected 293 cells; assay type: cell-based; conditions: Table 4′; read-out: Inhibition Type V 17β-HSD IC50
T2 construct: screen again a human placental λgt11 cDNA to get the full length cDNA clone; expressed in transfected cells; host or cells: human embryonal kidney 293 cells (pCMV / pCMV-neo vector)
T2 sequence (P42330 1-323): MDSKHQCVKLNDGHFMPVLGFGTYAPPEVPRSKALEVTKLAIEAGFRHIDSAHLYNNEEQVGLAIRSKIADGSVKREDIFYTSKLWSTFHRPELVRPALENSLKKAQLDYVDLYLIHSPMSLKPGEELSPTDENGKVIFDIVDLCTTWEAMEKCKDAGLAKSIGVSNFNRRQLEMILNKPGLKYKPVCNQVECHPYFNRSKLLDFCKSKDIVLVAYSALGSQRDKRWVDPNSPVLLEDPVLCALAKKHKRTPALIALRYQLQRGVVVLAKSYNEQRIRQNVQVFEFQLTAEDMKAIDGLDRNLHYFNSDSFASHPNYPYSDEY
Method: The manner in which IC50 was determined is described in “Efficacy of the Preferred Inhibitors”. Lower numbers for IC50 are desirable.
Using a oligoprimer pair (5′-GGA-AAT-CGT-GAC-AGG-GAA-TGG-ATT-CCA-AAC-AG-3′, 5′-GGA-ATT-CTT-TAT-TGT-ATT-TCT-GGC-CTA-TGG-AGT-GAG-3′) derived from human aldoketoreductase (Qin et al., J. Steroid Biochem. Molec. Biol. 46: 673-679, 1993) and polymerase chain reaction (PCR), we have amplified from a human placental λgt11 cDNA library (Clontech Laboratories Inc., Palo Alto, Calif.) a cDNA fragment that was used as probe to screen again a human placental λgt11 cDNA to get the full length cDNA clone. The amplified cDNA fragment was purified on agarose gel and labeled with [α^32P]dCTP (Amersham Corp.) using the random primer labeling kit from Pharmacia Inc. PCR amplification reaction medium contained 50 mM KCl, 10 mM Tris-HCl, pH 8.3, 0.1% gelatin, 1 mM MgCl2, 250 μM dNTP, 0.25 μM oligonucleotide primers, and 200 ng of DNA prepared from human placental λgt11 cDNA library. The aqueous phase was overlaid with 75 μL of mineral oil to avoid evaporation. The mixture was heated at 98° C. for 5 min, following the temperature reduction to 72° C., 1 unit of Taq DNA polymerase was added. Using a DNA Thermal Cycler (Perkin-Elmer Corp.), 30 cycles of amplification were carried out using a step program (94° C., 1 min; 60° C., 1 min; and 72° C., 1 min)/cycle.
Approximately 5×10^5 recombinant phage plaques were screened with 1.5×10^6 cpm/ml of the probe. Prehybridization was performed for 4 h at 42° C. in 50% formamide, 5× Denhardt's solution (1× Denhardt's being 0.02% polyvinyl pyrrolidone, 0.02 Ficoll, 0.02 bovine serum albumin), 5×SSPE (1×SSPE being 0.18M NaCl, 10 mM NaH2PO4, pH 7.4, 1 mM EDTA), 0.1% SDS, and 100 μg/ml yeast tRNA. The probe was denatured by heating at 100° C. for 5 min, before being added to the hybridization solution at 42° C. overnight. Filters were then washed twice at room temperature in 2×SSC (1×SSC being […], pH 7.0), 0.1% SDS, and twice in 0.1×SSC, 0.1% SDS at 60° C. Positive recombinant plaques were purified by replating twice and grown in liquid culture. Phage DNA were isolated by centrifugation for 90 min at 105,000×g, and DNA was then isolated by phenol extraction and precipitation with isopropanol (Karen et al. 1987; In: Current Protocols in Molecular Biology (F. M. Ausubel, R. Brent, E. Kingston, D. D. Moore, T. G. Seidman, T. A. Smith and K. Struhl, eds), Wiley & Sons, New York, pp. 1.13.1-1.13.6).
The phage DNA were digested with EcoRI restriction enzymes and the resulting cDNA fragments were inserted into the EcoRI site downstream to the cytomegalovirus (CMV) promoter of the pCMV vector (kindly provided by Dr. Matthew, Cold Spring Harbor, N.Y., USA). Recombinant pCMV plasmids were amplified in Escherichia Coli DH5α competent cells, and were isolated by alkaline lysis procedure (Maniatis et al., In: Molecular cloning: a laboratory manual, Cold Spring Harbor Laboratory., 1982). Sequencing of double-stranded plasmid DNA was performed according to the dideoxy chain termination method (Sanger et al., PNAS 74: 5453-5467, 1977) using a T7 DNA polymerase sequencing kit (Pharmacia LKB Biotechnology). To avoid errors, all sequences were determined by sequencing both strands of the DNA. Oligonucleotide primers were synthesized in our laboratory with a 394 DNA/RNA synthesizer (Applied Biosystem).
The pCMV vector contain 576 nucleotides of the pCMV promoter (followed by 432 bp of small t intron (fragment 4713-4570) and poly adenylation signal (2825-2536)of SV40, followed by 1989 bp of the Pvu II(628)-AatII (2617) fragment from pUC 19 vector (New England Biolabs) that contains an E. Coli origin of replication and an ampicillin resistance gene for propagation in E. Coli. […]

SMILES: CCC1(CC)CC[C@@]2(CC[C@H]3[C@@H]4CCc5cc(O)ccc5[C@H]4CC[C@@]32C)OC1=O [EM-1416, 1,3,5(10)-Estratrien-3-ol-17(R)-spiro-2′-(5′,5′-diethyl-6′-oxo)tetrahydropyran]
- Antiandrogenic Activity Shionogi, DHT E^−6 [1]: −41%
- Antiandrogenic Activity Shionogi, DHT E^−7 [1]: 26%
- Androgenic Activity Shionogi, Basal E^−6 [2]: −4%
- Androgenic Activity Shionogi, Basal E^−7 [2]: 28%
- Inhibition Type 2 17β-HSD Activity [% Inh. at 3 · 10^−8M] [3]: [76] %

SMILES: CCC1(CC)CC[C@@]2(CC[C@H]3[C@@H]4CCc5cc(OC)ccc5[C@H]4CC[C@@]32C)OC1=O [EM-1419, 3-Methoxy-1,3,5(10)-estratrien-17(R)-spiro-2′-(5′,5′-diethyl-6′-oxo)tetrahydropyran]
- Antiandrogenic Activity Shionogi, DHT E^−6 [1]: −64%
- Antiandrogenic Activity Shionogi, DHT E^−7 [1]: 2%
- Androgenic Activity Shionogi, Basal E^−6 [2]: −29%
- Androgenic Activity Shionogi, Basal E^−7 [2]: 16%
- Inhibition Type 2 17β-HSD Activity [% Inh. at 3 · 10^−8M] [3]: [74] %

SMILES: CC1(C)CCC2(CCC3C4CC(=O)c5cc(O)ccc5C4CCC32C)OC1=O (stereo not drawn) [EM-01608-D]
- IC50 [4]: 3.6 ± 0.5 nM
- inhibition ([3]; read-out: Inhibition Type 2 17β-HSD Activity [% Inh. at 3 · 10^−8M]): 58%

Source: US6541463B1, “Inhibitors of type 5 and type 3 17β-hydroxysteroid dehydrogenase and methods for their use” (Endorecherche, Inc., priority 1998, dated 2003)
